Assay [1] in a line: Cytotoxicity against human LNCAP cells assessed as cell viability inhibition at 10 uM after 72 hrs by Alamar blue assay. It counts as functional.
In a further assay the test system is CCRF-CEM VCR/R. The assay can be described thus: Inhibition of P-gp in human CCRF-CEM VCR/R cells assessed as potentiation of vinblastin-induced cytotoxicity at 5 uM after 72 hrs by Alamar blue assay relative to control. In kind it is cell-based. (The colour change of resazurin is a common sign of viable cells or microbes.)
The nature of assay [2]: Potentiation of vinblastin-induced cytotoxicity against human CEM cells at 5 uM after 72 hrs by Alamar blue assay relative to control. It counts as functional, CCRF-CEM.
For assay [3], the target named is T1, Large neutral amino acids transporter small subunit 3 (Homo sapiens, UniProt O75387).
T1 sequence (O75387 whole entry): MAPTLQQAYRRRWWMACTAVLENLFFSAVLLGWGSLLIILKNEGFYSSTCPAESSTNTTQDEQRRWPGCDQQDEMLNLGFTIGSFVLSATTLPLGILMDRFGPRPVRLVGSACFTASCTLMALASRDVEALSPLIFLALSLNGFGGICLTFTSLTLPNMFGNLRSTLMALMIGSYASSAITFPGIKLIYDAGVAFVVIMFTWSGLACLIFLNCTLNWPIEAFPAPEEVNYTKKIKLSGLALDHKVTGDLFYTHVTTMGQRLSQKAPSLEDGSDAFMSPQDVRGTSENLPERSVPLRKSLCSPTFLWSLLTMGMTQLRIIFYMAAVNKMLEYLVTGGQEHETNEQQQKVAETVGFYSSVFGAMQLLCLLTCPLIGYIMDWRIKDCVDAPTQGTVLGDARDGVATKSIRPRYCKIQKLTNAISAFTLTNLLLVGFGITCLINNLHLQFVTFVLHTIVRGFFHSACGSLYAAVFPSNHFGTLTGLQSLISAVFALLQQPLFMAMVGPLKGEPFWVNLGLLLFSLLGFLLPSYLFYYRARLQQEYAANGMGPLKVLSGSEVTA
In words: Inhibition of LAT3 in human LNCAP cells assessed as inhibition of [3H]L-leucine uptake after 15 mins by liquid scintillation counting method. In kind it is cell-based.

Assay [4] deals with T2, Large neutral amino acids transporter small subunit 3 (Homo sapiens) (UniProt O75387).
T2 sequence (whole entry): T1 sequence (O75387 whole entry)
In words: Inhibition of LAT3 in human LNCAP cells assessed as inhibition of [3H]L-leucine uptake at 10 mM after 15 mins by liquid scintillation counting method relative to control. It counts as cell-based.

The target in assay [5] is T2, Large neutral amino acids transporter small subunit 3 (Homo sapiens). In words: Inhibition of LAT3 in human LNCAP cells assessed as inhibition of [3H]L-leucine uptake at 10 uM after 15 mins by liquid scintillation counting method relative to control. It counts as cell-based.

As usually defined, the inhibition is the percentage by which the read-out fell short of the control. A word on the IC50: it is the concentration that gives 50% inhibition.

As for `CC(=O)OC[C@@]12[C@@H](OC(C)=O)CC[C@@H](C)[C@]13OC(C)(C)[C@H]([C@@H](OC(C)=O)[C@H]2OC(=O)c1ccccc1)[C@H]3O`, the inhibition at 10 µM in assay [1] was > 30%.
The same measure, in the same setting: as for `CC(=O)OC[C@@]12[C@@H](OC(C)=O)CC[C@@H](C)[C@]13OC(C)(C)[C@H]([C@@H](OC(C)=O)[C@H]2OC(=O)c1ccccc1)[C@H]3OC(C)=O`, the figure is > 30%; as for `CC(=O)O[C@H]1CC[C@@H](C)[C@]23OC(C)(C)[C@H]([C@@H](O)[C@@H](OC(=O)c4ccccc4)[C@]12C)[C@H]3OC(C)=O`, > 30%.
`CC(=O)OC[C@@]12[C@@H](OC(C)=O)CC[C@@H](C)[C@]13OC(C)(C)[C@H]([C@@H](OC(=O)C(C)(C)C)[C@H]2OC(=O)c1ccccc1)[C@H]3OC(C)=O`: the fold change (FC) came out at 124 in the assay on CCRF-CEM VCR/R and 1.5 in assay [2]. Also, in assay [1], the inhibition at 10 µM came to 25.6%.
For the compound `CC(=O)OC[C@@]12[C@@H](OC(C)=O)CC[C@@H](C)[C@]13OC(C)(C)[C@H](C[C@@H]2OC(=O)c1ccccc1)[C@H]3OC(C)=O`, the inhibition at 10 µM in assay [1] was > 30%.
As for `CC(=O)OC[C@@]12[C@@H](OC(C)=O)CC[C@@H](C)[C@]13OC(C)(C)[C@H]([C@@H](O)[C@H]2OC(=O)c1ccccc1)[C@H]3OC(C)=O`, the IC50 in assay [3] stood at 124 µM. In addition, the figures for the fold change (FC) (with CCRF-CEM VCR/R; in assay [2]) were 36.3 and 1.7, respectively. Moreover, in assay [1], the inhibition at 10 µM is > 30%.
Consider `CC(=O)O[C@H]1CC[C@@H](C)[C@]23OC(C)(C)[C@H](C[C@H](OC(=O)c4ccccc4)[C@]12C)[C@H]3OC(C)=O`, for which the inhibition at 10 µM in assay [1] was > 30%.
Regarding `NC1(C(=O)O)CC2CCC1C2` (stereo not given), the inhibition in assay [4] turned out to be 40.2%.
For `CC(=O)OC[C@@]12[C@@H](OC(C)=O)CC[C@@H](C)[C@]13OC(C)(C)[C@H]([C@@H](O)[C@@H]2OC(=O)c1ccccc1)[C@H]3OC(C)=O`, in assay [1], the inhibition at 10 µM was > 30%.
As to `COc1ccc(CCN(C)CCCC(C#N)(c2ccc(OC)c(OC)c2)C(C)C)cc1OC` (stereo not given) [VERAPAMIL], the fold change (FC) with CCRF-CEM VCR/R came to 64.5; in assay [2] it was 2.8. Moreover, the inhibition in assay [5] was 82.7%.
For the compound `CC(=O)OC[C@@]12[C@@H](OC(C)=O)CC[C@@H](C)[C@]13OC(C)(C)[C@H](C(=O)[C@H]2OC(=O)c1ccccc1)[C@H]3OC(C)=O`, the concentration for half-maximal inhibition (IC50) in assay [3] stood at 151 µM. Moreover, the results for the fold change (FC) (in the assay on CCRF-CEM VCR/R; in assay [2]) were 50.6 and 1.9, respectively. Also, the inhibition at 10 µM in assay [1] is > 30%.
In the case of `CC(=O)OC[C@@]12[C@@H](OC(C)=O)CC[C@@H](C)[C@]13OC(C)(C)[C@H]([C@@H](OC(=O)c1ccccc1)[C@H]2OC(=O)c1ccccc1)[C@H]3OC(C)=O`, the fold change (FC) was found to be 131 with CCRF-CEM VCR/R and 2.1 in assay [2]. In addition, the inhibition at 10 µM in assay [1] is 21.2%.
In the case of `CC(=O)O[C@@H]1[C@@H]2[C@@H](OC(C)=O)[C@]3(OC2(C)C)[C@H](C)CC[C@H](OC(C)=O)[C@@]3(C)[C@@H]1OC(=O)c1ccccc1`, the IC50 in assay [3] was 15.5 µM. Besides, the fold change (FC) in the assay on CCRF-CEM VCR/R was 61; in assay [2], 2. In assay [1], the inhibition at 10 µM was found to be 14.6%.
As for `CC(=O)OC[C@@]12[C@@H](OC(C)=O)CC[C@@H](C)[C@]13OC(C)(C)[C@H]([C@@H](OC(=O)c1ccc(Br)cc1)[C@H]2OC(=O)c1ccccc1)[C@H]3OC(C)=O`, in assay [1], the inhibition at 10 µM is > 30%.
On the same count and under the same terms, the same measure for `COCC(=O)O[C@@H]1[C@@H]2[C@@H](OC(C)=O)[C@]3(OC2(C)C)[C@H](C)CC[C@H](OC(C)=O)[C@@]3(COC(C)=O)[C@@H]1OC(=O)c1ccccc1`: > 30%.

For the origin of these results see ChEMBL document CHEMBL3853284, “Bioactive Dihydro-β-agarofuran Sesquiterpenoids from the Australian Rainforest Plant Maytenus bilocularis” (J Nat Prod, 2016).
